Results: patent US5496855A, “Anti-inflammatory compounds” (SmithKline Beecham Corp., priority 1995, dated 1996)
Read-outs that look alike come from different tables or passages of the source.

Columns and labels:
[1] = system: TPA-induced Mouse Ear Inflammation; experiment: Assay (g): TPA-induced mouse ear inflammation (ear edema, MPO); type: in vivo; conditions: for change in MPO, TPA model / TPA % change in edema: topical, standard inhibitors at doses of 0.2, 0.1 and 0.3 respectively
Method: (§1) Male Balb/c inbred mice are obtained from Charle River Breeding Laboratories (Kingston, N.Y.). Within a single experiment mice (22-25 g) are age-matched. These in vivo experiments typically involve the use of 5-6 animals/group.
TPA (12-0-tetradecanoylphorbol 13-acetate) (Sigma Chemical Company) in acetone ([…]) is applied to the inner and outer surfaces of the left ear of BALB/c male mice. The thickness of both ears is then measured with a dial micrometer (Mitutoyo, Japan) at both 2 and 4 hours after treatment, and the data expressed as the change in thickness (10^-3 cm) between treated and untreated ears. […] After measuring the edema, the inflammed left ears are removed and stored at -70° C. until they were assayed for MPO (myeloperoxidase) activity where appropriate.
(§2) On the day of the assay, partially thawed ear tissues are minced and then homogenized (10% w/v) with a Tissumizer homogenizer (Tekmar Co.) in 50 mM phosphate buffer (pH 6) containing 0.5% HTAB. The tissue homogenates are taken through three cycles of freeze-thaw, followed by brief sonication (10 sec). The method of Bradley et at. is used with modifications as described. […] Supernatant MPO activity is quantified kinetically (change in absorbance measured over 3 min, sampled at 15-sec intervals) using a Beckman DU-7 spectrophotometer and a Kinetics Analysis package (Beckman Instruments, Inc.). One unit of MPO activity is defined as that degrading one micromole of peroxide per minute at 25° C.
Statistical analysis is done using Student's "t" test.

[2] = system: Arachidonic acid induced ear inflammation; experiment: Assay (h): Arachidonic acid induced ear inflammation (ear edema, MPO); type: in vivo, mouse; conditions: for change in MPO, AA model / AA % change in edema: topical, standard inhibitors at doses of 0.2, 0.1 and 0.3 respectively
Method: as §1, §2
Arachidonic acid is dissolved in acetone (1 mg/ear) to the left ear of BALB/c male mice. The thickness of both cars is measured with a constant pressure thickness guage 1 hour after treatment and the data expressed as the change in thickness between treated and untreated ears. Test compounds or vehicle are given at the time of AA application. The inflammatory cell infiltration is measured by MPO activity as described above in the TPA ear edema assay. After the edema measurements are made, the inflamed ears are removed and assayed for MPO activity.

rh Type II-14 kDa PLA2 = target: T1, rh Type II-14 kDa PLA2 (Homo sapiens, UniProt P14555); experiment: Assay (a): Phospholipase A2 assay, acylhydrolysis of [3H]-AA-E. coli; type: biochemical; conditions: generally tested at 50 μm levels
T1 sequence (P14555 21-144): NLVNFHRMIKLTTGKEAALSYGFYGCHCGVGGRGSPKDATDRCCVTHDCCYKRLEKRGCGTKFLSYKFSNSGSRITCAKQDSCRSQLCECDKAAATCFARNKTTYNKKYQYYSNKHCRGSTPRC
Method: Phospholipase A2 activity of rh Type II-14 kDa PLA2 or PLA2 semi-purified from human synovial joint fluid was measured by the acylhydrolysis of high specific activity (NEN)[^3 H]-AA-E. coli (0.5 mCi/5nmol PL Pi) as previously described in Marshall et at., J. Rheumatology, 18:1, pp59-65 (1991). […] [Predominately used herein was rh Type II 14 kDa PLA2, or alternatively bovine pancreatic PLA2 was also be used]. The reaction mixture ([…] total volume) contained 25 mM HEPES, pH 7.4, 150 mM NaCl, 5 mM CaCl2 and [^3 H]-AA-E. coli (low specific activity; 5-8 nmol PL Pi per assay). Assays were incelbated for a time predetermined to be on the linear portion of a time versus hydrolysis plot. Experiments were conducted with final % hydrolysis values ranging from 2% (400-1000 dpm) to 10% (2000-5000 dpm) acylhydrolysis after blank correction. Reactions were terminated by the addition of 1.0 mL tetrahydrofuran (THF). […] Radiolabel in this eluate was quantitated by liquid scintillation counting. Results were expressed as % of fatty acid hydrolyzed ([sample dpms-non-specific (blank) dpms/total dpms]×100) or specific activity which was calculated from hydrolysis values found in the linear portion of time versus % hydrolysis plots (pmol free fatty acid hydrolyzed mg/min). […]

CoA-IT = experiment: Assay (b): CoA-IT activity in U937 cell microsomes; type: biochemical, human
human neutrophils [3] = experiment: Assay (c): Arachidonic acid release assay, A23187-stimulated neutrophils; type: cell-based; conditions: at levels greater than 10 uM
Method: Human neutrophils are obtained in the laboratory using three different methods. One method uses leukophoresis packs from normal humans and neutrophils are isolated using the histopaque-1077 technique. The blood is centrifuged at 300×g for 10 minutes. The cell pellets are resuspended in PBS composed of 137 mM NaCl, 8.8 mM Na2HPO4, 1.5 mM KH2PO4, 2.7 mM KCI (Dulbecco's Gibco Laboratories, Long Island, N.Y.) and layered over histopaque-1077 (Sigma, St. Louis, Mo.). The pellets are collected after centrifugation (300×g for 30 minutes) and washed once in PBS. The cell pellets are exposed briefly to deionized water to lyse any erythrocytes. The remaining cells are collected by centrifugation, suspended in PBS, counted and identified after cytospinning and staining. The final leukocyte preparation will be of greater than 95% purity and viability.
The second method isolates human neutrophils from fresh heparinized normal blood using the Histopaque-1077 technique. […] The remaining cells are collected by centrifugation, suspended in PBS, counted and identified after cytospinning and staining. […]
The third method isolates human neutrophils from freshly drawn heparinized normal blood using the Percoil technique. […] The neutrophils are suspended in PBS, counted and identified after cytospinning and staining. […]

human neutrophils [4] = experiment: Assay (d): Production of platelet-activating factor (PAF), A23187-stimulated neutrophils; type: cell-based
Method: Blood is obtained from normal humans and neutrophils are isolated as described for the arachidonic acid release assay, above. The final leukocyte preparation should be of greater than 95% purity and viability.
Neutrophils are suspended in PBS at concentrations of 5 to 20×10^6 cells per ml. Cells are added to test tubes and treated with the desired compounds for 5 to 10 minutes, then challenged with calcium ionophore A23187, 2 μM and 20-30 μCi of [3H]acetic acid (NEN-Dupont, Boston, Mass.), or the vehicle of PBS with 0.25-1 mg/ml. After 5 to 20 minutes, the reactions are terminated by addition of an equal volume of chloroform:methanol (1:2, v/v) to the samples and the lipiris are extracted by addition of equal volumes of chloroform and distilled water. The samples are vortexed and centrffuged at high speed and the chloroform layer removed to a clean tube.
The chloroform from each tube is evaporated to dryness and the material suspended in a small volume of chloroform or chloroform:methanol (25-100 μl) and the total material spotted on a Silica TLC plate. The plates are developed in chloroform/methanol/acetic acid/water (50:25:8:4, v/v) visualized by radioscanning (Bioscan) and the product, [^3 H]PAF, is scraped and quantified by liquid scintillation spectroscopy. With this TLC system, the Rf value for a synthetic standard of PAF is approximately 0.33.

human monocytes = experiment: Assay (f): stimulated eicosanoid (PGE2, LTC4) release by human monocytes; type: cell-based; conditions: human monocyte cells, A23187
Method: Leukocyte-rich leukopaks obtained from Biological Specialties (Lansdale, Pa.) are collected from male volunteers who are not taking anti-inflammatory drugs. Leukopaks are centrifuged (90×g for 15 min) twice to remove the platelet-rich plasma. The cell pellet is washed by centrifugation and are resuspended in HBSS without Ca^2+ or Mg^2+. Histopaque 1077 is layered under the cell suspension and centrifuged at 400×g for 30 min to obtain the buffy coat. The interfacial buffy coat, containing monocytes and lymphocytes, is removed and saved. The buffy coat is washed twice with HBSS without Ca^2+ or Mg^2+ by centrifugation. The cell pellet (4-6×10^8 cells/30 mls) is resuspended in iso-osmotic media (RPMI-1640, 10% heat inactivated fetal bovine serum (FBS), 0.2 mM L-glutamine, 2.5 mM HEPES) and layered over an equal volume of 46% Percol mixture (10×PBS/Percol; 9.25/0.75) and 54% iso-osmotic media and centrifuged for 30 min at 1000×g (Marshall and Roshak, Biochem. Cell Biol. 71: 331-339, 1993). The monocyte population located at the interface of the Percoll gradient is removed and washed twice in HBSS without Ca^2+ or Mg^2+.
Monocytes (5×10^6 /ml are incubated as a suspension in serum-free RPMI-1640 medium containing the vehicle DMSO (<1%) or drug for 30 min at 27° C. after which vehicle or stimuli is added for the indicated time. The stimulating agent is solubilized in DMSO and appropriate vehicle controls are included in all experiments. The amount of stimuli is chosen from the linear portion of a concentration versus product curve usually representing 60-80% maximal stimulation over the indicated incubation time at 37° C. (A23187, 1 μM, (15 min). The reaction is terminated by reduction of pH through addition of citric acid and centrifugation (10 min, 400×g, 4° C.). Cell viability is monitored before and after experiments using trypan blue exclusion. The cell-free media is decanted and stored at -70° C. until analyzed. Prostaglandin E2 and LTC4 are directly measured in cell-free media using enzyme immunoassay (EIA) kits purchased from Caymen Chemical Co. (Ann Arbor, Mich.) Sample or standard dilutions are made with appropriate media and analyzed in triplicate. Results are obtained by extrapolation from a standard curve prepared in the media and expressed as pg or ng/ml of sample.

[5] = read-out: IC50 for LTC4 release

Row | PLA2 inhibition (rh Type II-14 kDa PLA2) | IC50 (human monocytes; [5]) [nM] | IC50 (human monocytes; read-out: IC50 of PGE2 release) [nM] | SMILES | change in MPO, TPA model [1] | change in MPO, AA model [2] | TPA % change in edema [1] [%] | AA % change in edema [2] [%] | inhibitory activity in arachidonic acid release assay (human neutrophils [3]) | further results
1 | – | – | – | CC(=O)O[C@H]1C[C@@H]2[C@@]3(C)CCCC(C)(C)[C@@H]3CC[C@@]2(C)[C@@H]2CC=C(C=O)[C@H](C=O)[C@@]12C [scalaradial] | -65 | -33 | – | – | – | –
2 | – | – | – | C[C@@H]1C[C@H]2[C@@H]3CCC4=CC(=O)C=C[C@]4(C)[C@@]3(F)[C@@H](O)C[C@]2(C)[C@@]1(O)C(=O)CO [dexamethasone] | -54 | 0 | -50 | -10 | – | –
3 | – | – | – | C[C@H](C(=O)O)c1ccc2cc(OCc3ccc4ccccc4n3)ccc2c1 [WY 50,295] | -36 | -90 | -18 | -50 | – | –
4 | positive PLA2 inhibition | 220 | < 100 | NC(=O)N(O)CCC(CSc1ccc(Cc2ccccc2)cc1)NC(=O)CCCCCCc1ccccc1 (racemic) [Example 1, N-[3-(7-phenylheptylamido)-4-(4-phenylmethyl)phenylthio]-butyl-N-hydroxy urea] | – | – | – | – | weak inhibitory activity | CoA-IT inhibitory activity (CoA-IT; generally tested at 50 μm levels): positive CoA-IT inhibitory activity; IC50 (human neutrophils [4]; Neutrophil, human neutrophils, A23187): ~10 µM; MPO activity, percent change, TPA ear model ([1]; topically, 1 mg/ear): -68%; ear swelling (edema), percent change, TPA ear model ([1]; topically, 1 mg/ear): -43%; inhibition of inflammatory cell infiltration, TPA ear model ([1]; typically dosed at 50 mg/ear): demonstrated activity as an inhibitor of the inflammatory cell infiltration; MPO, AA ear model ([2]; 1 mg/ear): -53%; reduction in ear swelling, AA ear model ([2]; 1 mg/ear): -36%
5 | positive PLA2 inhibition | 521 | ~100 | N#CCC(CSc1ccc(Cc2ccccc2)cc1)NC(=O)CCCCCCc1ccccc1 (stereo not drawn) [Example 2, [3-(7-Phenylheptylamido)-4-(4-phenylmethyl)phenylthio]butylnitrile] | – | – | – | – | weak inhibitory activity | CoA-IT inhibitory activity (CoA-IT; at levels of greater than 30 uM): did not demonstrate positive activity; inhibitory activity in PAF production assay (human neutrophils [4]; at greater than 30 uM): did not demonstrate positivr activity
